Test results published in patent US20060069123A1, “Substituted dipiperidine CCR2 antagonists” (priority 2004, published 2006).

Target: T1, CCR2 (Homo sapiens, UniProt P41597)
T1 sequence (P41597 1-360 isoform P41597-2): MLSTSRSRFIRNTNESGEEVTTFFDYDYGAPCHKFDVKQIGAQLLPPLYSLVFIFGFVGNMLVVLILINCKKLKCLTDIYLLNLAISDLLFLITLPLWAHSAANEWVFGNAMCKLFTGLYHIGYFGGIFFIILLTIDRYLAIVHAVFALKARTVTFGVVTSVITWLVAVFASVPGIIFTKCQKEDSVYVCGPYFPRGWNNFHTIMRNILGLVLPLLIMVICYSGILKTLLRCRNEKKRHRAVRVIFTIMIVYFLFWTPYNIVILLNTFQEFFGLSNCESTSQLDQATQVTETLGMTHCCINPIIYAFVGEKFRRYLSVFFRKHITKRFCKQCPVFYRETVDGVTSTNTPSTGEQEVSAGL
Assay: not given
Settings: not given

Going from `COC(=O)c1ccc(C2CCN(C(C(=O)O)C3CCN(C(=O)/C=C/c4cc(F)cc(F)c4)CC3)CC2)cc1` (stereo not drawn) [Cpd 145, 4-[1-(carboxy-{1-[(2E)-3-(3,5-difluoro-phenyl)-acryloyl]-piperidin-4-yl}-methyl)-piperidin-4-yl]-benzoic acid methyl ester] to `COC(=O)OCC(C1CCN(C(=O)/C=C/c2cc(F)cc(F)c2)CC1)N1CCC(c2ccc(Cl)cc2)CC1` (stereo not drawn) [Cpd 250, carbonic acid 2-[4-(4-chloro-phenyl)-piperidin-1-yl]-2-{1-[(2E)-3-(3,5-difluoro-phenyl)-acryloyl]-piperidin-4-yl}-ethyl ester methyl ester], the IC50 falls from 5850 nM to 2900 nM (2-fold). The second is the more potent here.

First: O=C(CC1CCN(C(C(=O)O)C2CCN(C(=O)/C=C/c3cc(F)cc(F)c3)CC2)CC1)NCc1ccccc1 (stereo not drawn) [Cpd 148, [4-(benzylcarbamoyl-methyl)-piperidin-1-yl]-{1-[(2E)-3-(3,5-difluoro-phenyl)-acryloyl]-piperidin-4-yl}-acetic acid]
Second: O=C(CC1CCN(C(C(=O)O)C2CCN(C(=O)/C=C/c3cc(F)c(F)c(F)c3)CC2)CC1)NCc1ccccc1 (stereo not drawn) [Cpd 149]
The IC50 of the first is 1.9-fold lower: 8800 nM for the first, 16600 nM for the second.

`O=C(O)C(C1CCN(C(=O)/C=C/c2cc(F)c(F)c(F)c2)CC1)N1CCC(c2cc[nH]c2)CC1` (stereo not drawn) [Cpd 150, [4-(1H-pyrrol-3-yl)-piperidin-1-yl]-{1-[(2E)-3-(3,4,5-trifluoro-phenyl)-acryloyl]-piperidin-4-yl}-acetic acid] and `CS(=O)(=O)Nc1ccc(C2CCN(C(C(=O)O)C3CCN(C(=O)/C=C/c4cc(F)c(F)c(F)c4)CC3)CC2)cc1` (stereo not drawn) [Cpd 206, [4-(4-methanesulfonylamino-phenyl)-piperidin-1-yl]-{1-[(2E)-3-(3,4,5-trifluoro-phenyl)-acryloyl]-piperidin-4-yl}-acetic acid] are within 1.5-fold of each other in IC50: 1600 nM for the first, 2000 nM for the second.

`CCOC(=O)C(C1CCN(C(=O)/C=C/c2cc(F)c(F)c(F)c2)CC1)N1CCC(c2c[nH]c3ncccc23)CC1` (stereo not drawn) [Cpd 152, [4-(1H-pyrrolo[2,3-b]pyridin-3-yl)-piperidin-1-yl]-{1-[(2E)-3-(3,4,5-trifluoro-phenyl)-acryloyl]-piperidin-4-yl}-acetic acid ethyl ester] and `COC(=O)NCC(C1CCN(C(=O)/C=C/c2cc(F)c(F)c(F)c2)CC1)N1CCC(c2c[nH]c3ccccc23)CC1` (stereo not drawn) [Cpd 238, (2-[4-(1H-indol-3-yl)-piperidin-1-yl]-2-{1-[(2E)-3-(3,4,5-trifluoro-phenyl)-acryloyl]-piperidin-4-yl}-ethyl)-carbamic acid methyl ester] are within 1.5-fold of each other in IC50: 1900 nM for the first, 2400 nM for the second.

First: O=C(O)C(C1CCN(C(=O)/C=C/c2cc(F)cc(F)c2)CC1)N1CCC(c2n[nH]c3ccccc23)CC1 (stereo not drawn) [Cpd 177, {1-[(2E)-3-(3,5-difluoro-phenyl)-acryloyl]-piperidin-4-yl}-[4-(1H-indazol-3-yl)-piperidin-1-yl]-acetic acid]
Second: O=CNCC(C1CCN(C(=O)/C=C/c2cc(F)cc(F)c2)CC1)N1CCC(c2c[nH]c3ccccc23)CC1 (stereo not drawn) [Cpd 221]
The IC50 of the first is 7.3-fold higher: 3000 nM for the first, 410 nM for the second. The second is the more potent here.

`O=C(/C=C/c1cc(F)cc(F)c1)N1CCC(C(CO)N2CCC(c3nccs3)CC2)CC1` (stereo not drawn) [Cpd 194, (2E)-3-(3,5-difluoro-phenyl)-1-{4-[2-hydroxy-1-(4-thiazol-2-yl-piperidin-1-yl)-ethyl]-piperidin-1-yl}-propenone] and `O=C(/C=C/c1cc(F)c(F)c(F)c1)N1CCC(C(CO)N2CCC(c3nccs3)CC2)CC1` (stereo not drawn) [Cpd 195] are within 1.5-fold of each other in IC50: 2300 nM for the first, 3300 nM for the second.

`O=C(/C=C/c1ccc(Cl)c(Cl)c1)N1CCC(C(CO)N2CCC(c3nccs3)CC2)CC1` (stereo not drawn) [Cpd 196] and `CS(=O)(=O)Nc1ccc(C2CCN(C(CO)C3CCN(C(=O)/C=C/c4ccc(Cl)c(Cl)c4)CC3)CC2)cc1` (stereo not drawn) [Cpd 210, N-{4-[1-(1-{1-[(2E)-3-(3,4-dichloro-phenyl)-acryloyl]-piperidin-4-yl}-2-hydroxy-ethyl)-piperidin-4-yl]-phenyl}-methanesulfonamide] are within 1.5-fold of each other in IC50: 5700 nM for the first, 5000 nM for the second.

First: COc1cccc(C2CCN(C(CO)C3CCN(C(=O)/C=C/c4cc(F)cc(F)c4)CC3)CC2)c1 (stereo not drawn) [Cpd 197]
Second: O=C(/C=C/c1cc(F)cc(F)c1)N1CCC(C(CO)N2CCC(c3ccc(Cl)cc3)CC2)CC1 (stereo not drawn) [Cpd 249, (2E)-1-(4-{1-[4-(4-chloro-phenyl)-piperidin-1-yl]-2-hydroxy-ethyl}-piperidin-1-yl)-3-(3,5-difluoro-phenyl)-propenone]
The IC50 of the first is 60-fold higher: 1200 nM for the first, 20 nM for the second. The second is the more potent here.

`O=C(/C=C/c1cc(F)cc(F)c1)N1CCC(C(CO)N2CCC(c3ccccn3)CC2)CC1` (stereo not drawn) [Cpd 200] and `COCC(C1CCN(C(=O)/C=C/c2cc(F)cc(F)c2)CC1)N1CCC(c2ccc(OC)cc2)CC1` (stereo not drawn) [Cpd 255, (2E)-3-(3,5-difluoro-phenyl)-1-(4-{2-methoxy-1-[4-(4-methoxy-phenyl)-piperidin-1-yl]-ethyl}-piperidin-1-yl)-propenone] are within 1.5-fold of each other in IC50: 2000 nM for the first, 2400 nM for the second.

Compared with `O=CNCC(C1CCN(C(=O)/C=C/c2ccc(Cl)c(Cl)c2)CC1)N1CCC(c2c[nH]c3ccccc23)CC1` (stereo not drawn) [Cpd 222], `COC(=O)NCC(C1CCN(C(=O)/C=C/c2ccc(Cl)c(Cl)c2)CC1)N1CCC(c2c[nH]c3ccccc23)CC1` (stereo not drawn) [Cpd 240] is 6.8-fold higher in IC50: 680 nM for the first, 4600 nM for the second. The first is the more potent here.

`Cc1cccc(/C=C/C(=O)N2CCC(C(CNC=O)N3CCC(c4c[nH]c5ccccc45)CC3)CC2)c1` (stereo not drawn) [Cpd 223] and `CCNC(=O)NCC(C1CCN(C(=O)/C=C/c2cccc(C)c2)CC1)N1CCC(c2c[nH]c3ccccc23)CC1` (stereo not drawn) [Cpd 231] are within 1.5-fold of each other in IC50: 4100 nM for the first, 4600 nM for the second.

Compared with `O=CNCC(C1CCN(C(=O)/C=C/c2ccsc2)CC1)N1CCC(c2c[nH]c3ccccc23)CC1` (stereo not drawn) [Cpd 225], `O=CNCC(C1CCN(C(=O)Nc2ccc(Cl)c(Cl)c2)CC1)N1CCC(c2c[nH]c3ccccc23)CC1` (stereo not drawn) [Cpd 226] is 1.6-fold higher in IC50: 1300 nM for the first, 2100 nM for the second. The first is the more potent here.

`CCNC(=O)NCC(C1CCN(C(=O)/C=C/c2cc(F)c(F)c(F)c2)CC1)N1CCC(c2c[nH]c3ccccc23)CC1` (stereo not drawn) [Cpd 228] and `CCNC(=O)NCC(C1CCN(C(=O)/C=C/c2cc(F)cc(F)c2)CC1)N1CCC(c2c[nH]c3ccccc23)CC1` (stereo not drawn) [Cpd 229] are within 1.5-fold of each other in IC50: 2400 nM for the first, 1700 nM for the second.

Going from `CCNC(=O)NCC(C1CCN(C(=O)/C=C/c2ccc(Cl)c(Cl)c2)CC1)N1CCC(c2c[nH]c3ccccc23)CC1` (stereo not drawn) [Cpd 230] to `CCNC(=O)NCC(C1CCN(C(=O)/C=C/c2cccc(C(F)(F)F)c2)CC1)N1CCC(c2c[nH]c3ccccc23)CC1` (stereo not drawn) [Cpd 232], the IC50 rises from 2100 nM to 4000 nM (1.9-fold).

Compared with `CC(=O)OCC(C1CCN(C(=O)OC(C)(C)C)CC1)N1CCC(c2c[nH]c3ccccc23)CC1` (stereo not drawn) [Cpd 234, 4-{2-acetoxy-1-[4-(1H-indol-3-yl)-piperidin-1-yl]-ethyl}-piperidine-1-carboxylic acid tert-butyl ester], `COC(=O)NCC(C1CCN(C(=O)/C=C/c2cc(F)cc(F)c2)CC1)N1CCC(c2c[nH]c3ccccc23)CC1` (stereo not drawn) [Cpd 239] is 3.7-fold lower in IC50: 11200 nM for the first, 3000 nM for the second. The second is the more potent here.

First: O=C(/C=C/c1cc(F)c(F)c(F)c1)N1CCC(C(CO)N2CCC(c3coc4ncccc34)CC2)CC1 (stereo not drawn) [Cpd 248, (2E)-1-{4-[1-(4-furo[2,3-b]pyridin-3-yl-piperidin-1-yl)-2-hydroxy-ethyl]-piperidin-1-yl}-3-(3,4,5-trifluoro-phenyl)-propenone]
Second: CN(C)CC(=O)NCC(C1CCN(C(=O)/C=C/c2cc(F)cc(F)c2)CC1)N1CCC(c2c[nH]c3ccccc23)CC1 (stereo not drawn) [Cpd 252]
The IC50 of the first is 3.1-fold lower: 1900 nM for the first, 5800 nM for the second. The first is the more potent here.

Same assay, conditions: read-out: Inhibition of MCP-1 Binding IC50; 125I labeled MCP-1 binding to CCR2, THP-1 cells

`COc1ccc(C2CCN(C(CO)C3CCN(C(=O)/C=C/c4cc(F)c(F)cc4F)CC3)CC2)cc1` (stereo not drawn) [Cpd 140, (2E)-1-(4-{2-hydroxy-1-[4-(4-methoxy-phenyl)-piperidin-1-yl]-ethyl}-piperidin-1-yl)-3-(2,4,5-trifluoro-phenyl)-propenone] was tested, and the IC50 was 1600 nM.

Same assay, conditions: read-out: Inhibition of MCP-1 Binding, percent inhibition

Compared with `CS(=O)(=O)Nc1ccc(C2CCN(C(CO)C3CCN(C(=O)/C=C/c4cc(F)c(F)c(F)c4)CC3)CC2)cc1` (stereo not drawn) [Cpd 209, N-{4-[1-(2-hydroxy-1-{1-[(2E)-3-(3,4,5-trifluoro-phenyl)-acryloyl]-piperidin-4-yl}-ethyl)-piperidin-4-yl]-phenyl}-methanesulfonamide], `O=C(/C=C/c1ccc(C(F)(F)F)cc1)N1CCC(C(CCl)N2CCC(c3ccc(Cl)cc3)CC2)CC1` (stereo not drawn) [Cpd 247, (2E)-1-(4-{2-chloro-1-[4-(4-chloro-phenyl)-piperidin-1-yl]-ethyl}-piperidin-1-yl)-3-(4-trifluoromethyl-phenyl)-propenone] is higher in inhibition at 25 µM: 52% for the first, 53% for the second.

`O=C(C1CC1c1ccc(Cl)c(Cl)c1)N1CCC(C(CO)N2CCC(c3c[nH]c4ccccc34)CC2)CC1` (stereo not drawn) [Cpd 212, [2-(3,4-dichloro-phenyl)-cyclopropyl]-(4-{2-hydroxy-1-[4-(1H-indol-3-yl)-piperidin-1-yl]-ethyl}-piperidin-1-yl)-methanone] and `COC(=O)NCC(C1CCN(C(=O)/C=C/c2cccc(C)c2)CC1)N1CCC(c2c[nH]c3ccccc23)CC1` (stereo not drawn) [Cpd 241] are the same in inhibition at 25 µM: 58% for the first, 58% for the second.

In the case of `O=CNCC(C1CCN(C(=O)/C=C/c2cccc(C(F)(F)F)c2)CC1)N1CCC(c2c[nH]c3ccccc23)CC1` (stereo not drawn) [Cpd 224], the inhibition at 25 µM is reported as 54%.

Tested on: THP-1 cells
Assay: MCP-1 Induced Chemotaxis in THP-1 Cells
Format: cell-based
Settings: Homo sapiens; THP-1 cells, MCP-1 0.01 μg/mL, 3 hours; read-out: Inhibition of MCP-1 Induced Chemotaxis IC50
Protocol: MCP-1 Induced Chemotaxis in THP-1 Cells
MCP-1 induced chemotaxis was run in a 24-well chemotaxis chamber. MCP-1 (0.01 μg/mL) was added to the lower chamber and 100 μL of THP-1 cells (1×10^7 cell/mL) was added to the top chamber. Varying concentrations of test compound were added to the top and bottom chambers. Cells were allowed to chemotax for 3 hours at 37° C. and 5% CO2. An aliquot of the cells that had migrated to the bottom chamber was taken and counted then compared to vehicle.

Compound `O=C(O)C(C1CCN(C(=O)/C=C/c2cc(F)cc(F)c2)CC1)N1CCC(c2c[nH]c3ccc(F)cc23)CC1` (stereo not drawn) [Cpd 8, {1-[(2E)-3-(3,5-difluoro-phenyl)-acryloyl]-piperidin-4-yl}-[4-(5-fluoro-1H-indol-3-yl)-piperidin-1-yl]-acetic acid] has an IC50 of 10 nM.
